Assay results from ChEMBL document CHEMBL1201862, “PubChem BioAssay data set” (2004).
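Grown in 96-well plates, cells were treated for 48 hours with each compound at five concentrations. Insufficient inhibition: endpoint recorded as highest concentration tested. GI50 = concentration required for 50% inhibition of growth.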 Activity calls are given as the source filed them. No stated cut-off is given here; in the data, active = GI50 up to about 1.1 µM and inactive = higher.

Tests used:
Experiment in all cases: NCI tumour cell line growth inhibition, 48 h
786-0 = system: 786-0
ACHN = system: ACHN
BT-549 = system: BT-549
CAKI-1 = system: CAKI-1
HOP-62 = system: HOP-62
Hs-578T = system: Hs-578T
K562 = system: K562
LOX IMVI = system: LOX IMVI
MDA-N = system: MDA-N
Malme-3M = system: Malme-3M
NCI-H226 = system: NCI-H226
NCI-H460 = system: NCI-H460
NCI-H522 = system: NCI-H522
RXF 393 = system: RXF 393
SF-268 = system: SF-268
SF-539 = system: SF-539
SK-MEL-5 = system: SK-MEL-5
SNB-19 = system: SNB-19
UACC-62 = system: UACC-62

Row | SMILES | GI50 (786-0) | GI50 (ACHN) | GI50 (BT-549) | GI50 (CAKI-1) | GI50 (HOP-62) | GI50 (Hs-578T) | GI50 (K562) | GI50 (LOX IMVI) | GI50 (MDA-N) | GI50 (Malme-3M) | GI50 (NCI-H226) | GI50 (NCI-H460) | GI50 (NCI-H522) | GI50 (RXF 393) | GI50 (SF-268) | GI50 (SF-539) | GI50 (SK-MEL-5) | GI50 (SNB-19) | GI50 (UACC-62)
1 | CN(C)S(=O)(=O)Nc1ccccn1 | > 100 µM (inactive) | > 100 µM (inactive) | > 100 µM (inactive) | > 100 µM (inactive) | > 100 µM (inactive) | > 100 µM (inactive) | > 100 µM (inactive) | > 100 µM (inactive) | > 100 µM (inactive) | > 100 µM (inactive) | > 100 µM (inactive) | > 100 µM (inactive) | > 100 µM (inactive) | > 100 µM (inactive) | > 100 µM (inactive) | > 100 µM (inactive) | > 100 µM (inactive) | > 100 µM (inactive) | > 100 µM (inactive)
2 | O=C(O)CN1C(=O)CN=C(c2ccccn2)c2cc(Cl)ccc21 | > 100 µM (inactive) | > 100 µM (inactive) | > 100 µM (inactive) | > 100 µM (inactive) | > 100 µM (inactive) | > 100 µM (inactive) | > 100 µM (inactive) | > 100 µM (inactive) | > 100 µM (inactive) | > 100 µM (inactive) | > 100 µM (inactive) | > 100 µM (inactive) | > 100 µM (inactive) | > 100 µM (inactive) | > 100 µM (inactive) | > 100 µM (inactive) | > 100 µM (inactive) | > 100 µM (inactive) | > 100 µM (inactive)
3 | COc1cc(OC)c2nc3occc3c(OC)c2c1 | 96.4 µM (inactive) | 41.7 µM (inactive) | > 100 µM (inactive) | 77.4 µM (inactive) | > 100 µM (inactive) | > 100 µM (inactive) |  | 83.2 µM (inactive) | > 100 µM (inactive) | > 100 µM (inactive) | > 100 µM (inactive) | 78 µM (inactive) | > 100 µM (inactive) | 80 µM (inactive) | > 100 µM (inactive) | > 100 µM (inactive) | 45.7 µM (inactive) | 66.4 µM (inactive) | > 100 µM (inactive)
4 | O=C(NNC(=O)c1ccccc1Cl)c1ccccc1O | 87.1 µM (inactive) |  | > 100 µM (inactive) | 41.3 µM (inactive) | 31.8 µM (inactive) | 41.9 µM (inactive) | 91 µM (inactive) | 38.1 µM (inactive) | > 100 µM (inactive) | 4.24 µM (inactive) | 3.42 µM (inactive) | 23.6 µM (inactive) | 12.2 µM (inactive) | > 100 µM (inactive) | 10.6 µM (inactive) | > 100 µM (inactive) | > 100 µM (inactive) | > 100 µM (inactive) | 35.7 µM (inactive)
5 | N#C/C(=C\c1ccc(F)cc1)c1nc2ccccc2c(=O)[nH]1 | > 100 µM (inactive) | > 100 µM (inactive) | 36.8 µM (inactive) | > 100 µM (inactive) | 47 µM (inactive) | 79.6 µM (inactive) | > 100 µM (inactive) | > 100 µM (inactive) | > 100 µM (inactive) | > 100 µM (inactive) | > 100 µM (inactive) | > 100 µM (inactive) | > 100 µM (inactive) | > 100 µM (inactive) | 58.6 µM (inactive) | > 100 µM (inactive) |  | > 100 µM (inactive) | > 100 µM (inactive)
6 | N#Cc1c(N)c2c(c(-c3ccccc3)c1-c1ccccc1)C(=O)N(NC(=O)c1ccccc1)C2=O | 76.9 µM (inactive) | > 100 µM (inactive) | > 100 µM (inactive) | > 100 µM (inactive) |  | 90.6 µM (inactive) | 96.8 µM (inactive) | > 100 µM (inactive) | 72.6 µM (inactive) | > 100 µM (inactive) | > 100 µM (inactive) | 55.1 µM (inactive) | 81.7 µM (inactive) | 60 µM (inactive) | > 100 µM (inactive) | 64.4 µM (inactive) | 68.7 µM (inactive) | 58.5 µM (inactive) | 75.9 µM (inactive)
7 | O=C1c2c(Br)sc(Br)c2C(NC(=O)C(F)(F)F)C1O (stereo not drawn) | 19.3 µM (inactive) | 29.5 µM (inactive) | 19.4 µM (inactive) | 17.5 µM (inactive) |  | 32.8 µM (inactive) | 12.1 µM (inactive) | 21.8 µM (inactive) | 19.1 µM (inactive) | 20.2 µM (inactive) | 29.5 µM (inactive) | 20.4 µM (inactive) | 13.3 µM (inactive) | 13.3 µM (inactive) | 34 µM (inactive) | 15.7 µM (inactive) | 19.5 µM (inactive) | 24.4 µM (inactive) | 20.3 µM (inactive)
8 | COC(=O)/C=C/c1ccc2c(c1)CC1(C2)Cc2cc3c(cc2C1=O)CCC3 (stereo not drawn) | 27 µM (inactive) | 39.5 µM (inactive) | > 100 µM (inactive) | 36.2 µM (inactive) |  | 25.2 µM (inactive) | > 100 µM (inactive) | > 100 µM (inactive) | > 100 µM (inactive) | 42 µM (inactive) | 49.3 µM (inactive) | 80.9 µM (inactive) | 31.1 µM (inactive) | 24.5 µM (inactive) | 46.2 µM (inactive) | 31 µM (inactive) | 74.8 µM (inactive) | 31.6 µM (inactive) | > 100 µM (inactive)
9 | CCOC(=O)c1c(-c2ccccc2)c(OC)cn1C | > 10 µM (inactive) | > 10 µM (inactive) | > 10 µM (inactive) | > 10 µM (inactive) | > 10 µM (inactive) | > 10 µM (inactive) | > 10 µM (inactive) | > 10 µM (inactive) | > 10 µM (inactive) | > 10 µM (inactive) | > 10 µM (inactive) | > 10 µM (inactive) | > 10 µM (inactive) | > 10 µM (inactive) | > 10 µM (inactive) | > 10 µM (inactive) | > 10 µM (inactive) | > 10 µM (inactive) | > 10 µM (inactive)
10 | N#Cc1sc2nc3ccccc3n2c1N | > 100 µM (inactive) | 92.3 µM (inactive) | 49.2 µM (inactive) | 37.2 µM (inactive) | 84.5 µM (inactive) | 36.2 µM (inactive) |  | 40.8 µM (inactive) | > 100 µM (inactive) | > 100 µM (inactive) | 95.9 µM (inactive) |  | > 100 µM (inactive) | 17.6 µM (inactive) | 60.3 µM (inactive) | 55.3 µM (inactive) | 95.7 µM (inactive) | > 100 µM (inactive) | 62.4 µM (inactive)
11 | CCOC(=O)c1nc2ccccc2nc1NCc1ccc(OC)c(OC)c1 | > 100 µM (inactive) | > 100 µM (inactive) | > 100 µM (inactive) | > 100 µM (inactive) | > 100 µM (inactive) | 45.9 µM (inactive) | > 100 µM (inactive) | > 100 µM (inactive) | > 100 µM (inactive) | > 100 µM (inactive) | > 100 µM (inactive) | > 100 µM (inactive) | > 100 µM (inactive) | 27.8 µM (inactive) | > 100 µM (inactive) | > 100 µM (inactive) | > 100 µM (inactive) |  | > 100 µM (inactive)
12 | COc1cc(CNC(=O)[C@H](Cc2ccc(O)cn2)NC(C)=O)cc(OC)c1 | > 100 µM (inactive) | > 100 µM (inactive) | > 100 µM (inactive) | > 100 µM (inactive) | > 100 µM (inactive) | > 100 µM (inactive) | 83 µM (inactive) | > 100 µM (inactive) | > 100 µM (inactive) | > 100 µM (inactive) | > 100 µM (inactive) | > 100 µM (inactive) | > 100 µM (inactive) | > 100 µM (inactive) | > 100 µM (inactive) | > 100 µM (inactive) | 67 µM (inactive) | > 100 µM (inactive) | 80.9 µM (inactive)
13 | O=c1[nH]/c(=C/c2ccc(OCc3ccccc3)cn2)c(=O)[nH]/c1=C/c1ccc(O)cc1 | 0.612 µM (active) | 1.67 µM (inactive) | 2.49 µM (inactive) | 0.834 µM (active) | 1.88 µM (inactive) | 1.67 µM (inactive) | 0.859 µM (active) | 0.507 µM (active) | 0.129 µM (active) | 2.34 µM (inactive) | 51.4 µM (inactive) | 1.41 µM (inactive) | 0.276 µM (active) | 0.865 µM (active) | 1.04 µM (active) | 0.461 µM (active) | 2.07 µM (inactive) | 2.15 µM (inactive) | 1.58 µM (inactive)
14 | Oc1ccc2c3c1OC1c4[nH]ncc4C[C@H]4[C@@H](C2)N(CC2CC2)CC[C@]314 (stereo partly drawn) | > 100 µM (inactive) | > 100 µM (inactive) | > 100 µM (inactive) | > 100 µM (inactive) | > 100 µM (inactive) | > 100 µM (inactive) | 99.5 µM (inactive) | > 100 µM (inactive) | > 100 µM (inactive) | > 100 µM (inactive) | > 100 µM (inactive) | > 100 µM (inactive) | > 100 µM (inactive) | > 100 µM (inactive) | > 100 µM (inactive) |  | > 100 µM (inactive) | > 100 µM (inactive) | > 100 µM (inactive)
15 | COc1ccc(-c2nnc3nc4ccccc4n3c2O)cc1 | > 100 µM (inactive) | > 100 µM (inactive) | > 100 µM (inactive) | > 100 µM (inactive) | > 100 µM (inactive) | > 100 µM (inactive) |  | > 100 µM (inactive) | > 100 µM (inactive) | > 100 µM (inactive) | > 100 µM (inactive) | > 100 µM (inactive) | > 100 µM (inactive) | 7.19 µM (inactive) | > 100 µM (inactive) | > 100 µM (inactive) | > 100 µM (inactive) | > 100 µM (inactive) | 
